Patent US20260008760A1, “DIPEPTIDYL PEPTIDASE 1 INHIBITORS AND USES THEREOF” (Insmed Incorporated, priority 2024, published 2026)

Assays:
[1] = target: DPP1 in HL-60 cells (Homo sapiens, UniProt P53634); test: DPP1 Cell IC50 assay; type: cell-based; set-up: host or cells: HL-60 cells; details: 60 min pre-incubation, H-Gly-Phe-AFC substrate, average of n runs, read-out: Avg. IC50 (DPP1 Cell IC50 value ranges)
Procedure: Example 99. DPP1 Cell IC50 assay
HL-60 cells (ATCC; Manassas, VA) were maintained in RPMI-1640 supplemented with 20% heat-inactivated FBS and 1× Antibiotic Antimycotic (Cytiva; Marlborough, MA). Media was changed every three to four days and cells were not allowed to exceed 1×10^6 cells per mL. Prior to assay, cells were collected by centrifugation at 500 rcf for 3 minutes, resuspended in PBS and counted. Cells were diluted in PBS to a concentration of 5×10^5 live cells per mL and transferred to black 96-well plates for assay, 60 μL per well. Test articles were diluted in PBS plus 0.5% DMSO, and 20 μL was added to each assay well. Compound was allowed to pre-incubate with cells with gentle shaking at 100 rpm for 60 minutes at 37° C. in a cell culture incubator maintained at 5% CO2, after which 20 μL of 500 μM H-Gly-Phe-AFC substrate (MP Biomedicals; Solon, OH) was added to each well. Plates were returned to the incubator with shaking at 100 rpm for 30 minutes, after which fluorescence was measured at Excitation/Emission 400/505 nm. % Inhibition was calculated from RFU values compared to control cell wells that received only PBS plus 0.5% DMSO. IC50 values for each compound were calculated via the XLFit (IDBS Version 5.3.1.3) Add-On to Microsoft Excel using the four parameter fit equation y=(A+((B−A)/(1+((C/x)^D)))), which appears as equation number 205 (4 Parameter Logistic Model or Sigmoidal Dose-Response Model) in XLFit. IC50 was defined as the compound concentration at which 50% of enzyme activity was inhibited when compared to the no-compound control.

[2] = target: human DPP1 enzyme (Homo sapiens, UniProt P53634); test: Human DPP1 Enzyme IC50 Assay; type: biochemical; set-up: was first proteolytically processed into its mature form using recombinant human cathepsin L; purchased R&D Systems; details: activated recombinant human DPP1, 400 μM H-Gly-Arg-AMC, 10 minutes pre-incubation at 37° C., pH 6.0; average of n runs; read-out: Avg. IC50 (Human DPP1 enzyme IC50 value ranges)
human DPP1 enzyme, sequence (P53634 25-134 limits assumed): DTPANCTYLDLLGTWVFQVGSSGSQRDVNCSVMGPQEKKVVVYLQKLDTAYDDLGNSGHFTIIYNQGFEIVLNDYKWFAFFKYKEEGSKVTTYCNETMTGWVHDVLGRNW
human DPP1 enzyme, sequence (P53634 231-394 limits assumed): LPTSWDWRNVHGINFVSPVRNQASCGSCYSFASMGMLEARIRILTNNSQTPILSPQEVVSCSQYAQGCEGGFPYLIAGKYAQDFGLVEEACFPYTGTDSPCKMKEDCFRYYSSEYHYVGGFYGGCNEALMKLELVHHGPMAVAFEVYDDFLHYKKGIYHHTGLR
human DPP1 enzyme, sequence (P53634 395-463 limits assumed): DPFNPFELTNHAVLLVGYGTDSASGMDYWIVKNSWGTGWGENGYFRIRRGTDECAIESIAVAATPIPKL
Procedure: Example 97. Human DPP1 Enzyme IC50 Assay
Recombinant human DPP1 enzyme (R&D Systems; Minneapolis, MN) was first proteolytically processed into its mature form using recombinant human cathepsin L (R&D Systems) in a buffer consisting of 20 mM citric acid pH 4.5, 150 mM NaCl, 1 mM EDTA and 10 mM DTT. Test articles were applied to activated human DPP1 enzyme in Assay Buffer (25 mM MES pH 6.0, 50 mM NaCl, 5 mM DTT) in a total reaction volume of 125 μL. 25 μL of compound in Assay Buffer plus 5% DMSO was first added to 50 μL of activated human DPP1 enzyme at a concentration of 1 ng/μL and allowed to pre-incubate for 10 minutes at 37° C. after which 50 μL of 1000 μM H-Gly-Arg-AMC substrate (Bachem; St. Torrance, CA) was added, giving final substrate concentration of 400 μM and a final DMSO concentration of 1%. Substrate cleavage was measured for 90 minutes at 37° C., with fluorescence at Excitation/Emission 350/450 nm measured every 5 minutes. DPP1 concentration was interpolated based on its activity relative to a standard curve of activated human recombinant DPP1 enzyme. IC50 values for each compound were calculated via the XLFit (IDBS Version 5.3.1.3) Add-On to Microsoft Excel using the four parameter fit equation y={A+[(B−A)]/[1+((C/x)^D)]}, which appears as equation number 205 (4 Parameter Logistic Model or Sigmoidal Dose-Response Model) in XLFit. Default constraints were used for each Parameter. IC50 was defined as the compound concentration at which 50% of enzyme activity was inhibited when compared to the no-compound control.

DPP1 in HL-60 cells, sequence (P53634 25-463): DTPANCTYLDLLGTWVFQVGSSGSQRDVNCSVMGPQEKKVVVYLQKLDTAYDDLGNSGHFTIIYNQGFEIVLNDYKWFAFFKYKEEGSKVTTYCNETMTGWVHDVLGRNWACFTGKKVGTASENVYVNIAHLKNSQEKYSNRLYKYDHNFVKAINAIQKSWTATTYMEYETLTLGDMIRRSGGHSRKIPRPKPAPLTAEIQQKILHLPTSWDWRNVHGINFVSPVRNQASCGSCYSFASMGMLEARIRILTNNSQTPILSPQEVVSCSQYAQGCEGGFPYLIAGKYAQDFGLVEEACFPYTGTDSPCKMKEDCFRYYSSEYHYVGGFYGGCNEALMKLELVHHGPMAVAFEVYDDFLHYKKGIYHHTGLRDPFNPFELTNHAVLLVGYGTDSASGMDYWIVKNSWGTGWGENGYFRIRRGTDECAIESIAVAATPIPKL

Row | SMILES | IC50 [1] | IC50 [2]
1 | COC1CNC[C@@H](C(=O)N[C@H](C#N)Cc2ccc(-c3ccc4nnn(C)c4c3)cc2)OC1 (single isomer, unassigned) [Compound H12-A] | > 2.5 nM | > 15 nM
2 | N#C[C@H](Cc1ccc(C23CCC(C#N)(CC2)CC3)cc1)NC(=O)[C@@H]1CNCCCO1 [Compound 4] | > 2.5 nM | > 15 nM
3 | CN1CCC2(CC1)C(=O)Nc1ccc(-c3ccc(C[C@@H](C#N)NC(=O)[C@@H]4CNCCCO4)cc3)cc12 [Compound 13, (2S)—N-[(1S)-1-cyano-2-(4-{1′-methyl-2-oxo-1H-spiro[indole-3,4′-piperidin]-5-yl}phenyl)ethyl]-1,4-oxazepane-2-carboxamide] | > 2.5 nM | > 15 nM
4 | N#C[C@H](Cc1ccc(-c2ccc3c(c2)C2(CCNCC2)C(=O)C3)cc1)NC(=O)[C@@H]1CNCCCO1 [Compound 22, (2S)—N-[(1S)-1-cyano-2-(4-{2-oxo-3H-spiro[indene-1,4′-piperidin]-6-yl}phenyl)ethyl]-1,4-oxazepane-2-carboxamide] | > 2.5 nM | 5 to 15 nM
5 | CN1C(=O)C2(CCNCC2)c2cc(-c3ccc(C[C@@H](C#N)NC(=O)[C@@H]4CNCCCO4)cc3)ccc21 [Compound 23, (2S)—N-[(1S)-1-cyano-2-(4-{1-methyl-2-oxospiro[indole-3,4′-piperidin]-5-yl}phenyl)ethyl]-1,4-oxazepane-2-carboxamide] | > 2.5 nM | 5 to 15 nM
6 | N#C[C@H](Cc1ccc(-c2ccc3c(c2)C2(CCNC2)OC3=O)cc1)NC(=O)[C@@H]1CNCCCO1 (stereo partly drawn) [Compound 25, (2S)—N-[(1S)-1-cyano-2-(4-{3-oxospiro[2-benzofuran-1,3′-pyrrolidin]-6-yl}phenyl)ethyl]-1,4-oxazepane-2-carboxamide] | > 2.5 nM | > 15 nM
7 | N#C[C@H](Cc1ccc(-c2ccc3c(c2)C2(CN(C4COC4)C2)OC3=O)cc1)NC(=O)[C@@H]1CNCCCO1 [Compound 27, (2S)—N-[(1S)-1-cyano-2-{4-[1-(oxetan-3-yl)-3′-oxospiro[azetidine-3,1′-[2]benzofuran]-6′-yl]phenyl}ethyl]-1,4-oxazepane-2-carboxamide] | > 2.5 nM | > 15 nM
8 | CN1C(=O)C2(CCN(C3COC3)CC2)c2cc(-c3ccc(C[C@@H](C#N)NC(=O)[C@@H]4CNCCCO4)cc3)ccc21 [Compound 29, (2S)—N-[(1S)-1-cyano-2-{4-[1-methyl-1′-(oxetan-3-yl)-2-oxospiro[indole-3,4′-piperidin]-5-yl]phenyl}ethyl]-1,4-oxazepane-2-carboxamide] | > 2.5 nM | > 15 nM
9 | N#C[C@H](Cc1ccc(-c2ccc3c(c2)C2(CCNCC2)CC3=O)cc1)NC(=O)[C@@H]1CNCCCO1 [Compound 30, (2S)—N-[(1S)-1-cyano-2-(4-{3-oxo-2H-spiro[indene-1,4′-piperidin]-6-yl}phenyl)ethyl]-1,4-oxazepane-2-carboxamide] | > 2.5 nM | 5 to 15 nM
10 | COc1ccc(-c2ccc(C[C@@H](C#N)NC(=O)[C@@H]3CNCCCO3)cc2)cc1-n1cnnc1 [Compound 31, (2S)—N-[(1S)-1-cyano-2-[4′-methoxy-3′-(1,2,4-triazol-4-yl)-[1,1′-biphenyl]-4-yl]ethyl]-1,4-oxazepane-2-carboxamide] | > 2.5 nM | > 15 nM
11 | CN1C(=O)C2(CCN(C3CCOCC3)CC2)c2cc(-c3ccc(C[C@@H](C#N)NC(=O)[C@@H]4CNCCCO4)cc3)ccc21 [Compound 35] | > 2.5 nM | > 15 nM

The remaining lines, values ahead:

Row | IC50 [1] | IC50 [2] | SMILES
12 | > 2.5 nM | > 15 nM | Cn1c(=O)oc2cc3c(cc21)-c1cc(F)c(CC(C#N)NC(=O)[C@@H]2CNCCCCO2)cc1OC3 (single isomer, unassigned) [Compound C6]
13 | > 2.5 nM | > 15 nM | N#C[C@H](Cc1ccc(-c2ccc3c(c2)CCS3)cc1)NC(=O)[C@@H]1CNCCCO1 [Compound A4, (2S)—N-[(1S)-1-cyano-2-[4-(2,3-dihydro-1-benzothiophen-5-yl)phenyl]ethyl]-1,4-oxazepane-2-carboxamide]
14 | > 2.5 nM | > 15 nM | N#C[C@H](Cc1ccc(-c2nc3c(s2)CS(=O)(=O)CC3)cc1)NC(=O)[C@@H]1CNCCCO1 [Compound A6]
15 | > 2.5 nM | > 15 nM | N#C[C@H](Cc1ccc(-c2cc3ccncc3[nH]2)cc1)NC(=O)[C@@H]1CNCCCO1 [Compound A7, (2S)—N-[(1S)-1-cyano-2-(4-{1H-pyrrolo[2,3-c]pyridin-2-yl}phenyl)ethyl]-1,4-oxazepane-2-carboxamide]
16 | > 2.5 nM | > 15 nM | N#C[C@H](Cc1ccc(-c2cnc3c(c2)COCCN3)cc1)NC(=O)[C@@H]1CNCCCO1 [Compound A9, (2S)—N-[(1S)-1-cyano-2-(4-{1H,2H,3H,5H-pyrido[2,3-e][1,4]oxazepin-7-yl}phenyl)ethyl]-1,4-oxazepane-2-carboxamide]
17 | > 2.5 nM | > 15 nM | N#C[C@H](Cc1ccc(-c2cc3n(c2)CCCNC3=O)cc1)NC(=O)[C@@H]1CNCCCO1 [Compound A12, (2S)—N-[(1S)-1-cyano-2-(4-{1-oxo-2H,3H,4H,5H-pyrrolo[1,2-a][1,4]diazepin-8-yl}phenyl)ethyl]-1,4-oxazepane-2-carboxamide]
18 | > 2.5 nM | > 15 nM | Cn1c(=O)ccc2ncc(-c3ccc(C[C@@H](C#N)NC(=O)[C@@H]4CNCCCO4)cc3)cc21 [Compound A18, (2S)—N-[(1S)-1-cyano-2-[4-(5-methyl-6-oxo-1,5-naphthyridin-3-yl)phenyl]ethyl]-1,4-oxazepane-2-carboxamide]
19 | > 2.5 nM | > 15 nM | Cc1c(C(N)=O)sc2ncc(-c3ccc(C[C@@H](C#N)NC(=O)[C@@H]4CNCCCO4)cc3)cc12 [Compound A19, (2S)—N-[(1S)-2-(4-{2-carbamoyl-3-methylthieno[2,3-b]pyridin-5-yl}phenyl)-1-cyanoethyl]-1,4-oxazepane-2-carboxamide]
20 | > 2.5 nM | > 15 nM | N#C[C@H](Cc1ccc(-c2ccc3c(c2)N(C(N)=O)CCC3)cc1)NC(=O)[C@@H]1CNCCCO1 [Compound A20, 7-{4-[(2S)-2-cyano-2-[(2S)-1,4-oxazepan-2-ylformamido]ethyl]phenyl}-3,4-dihydro-2H-quinoline-1-carboxamide]
21 | 1 to 2.5 nM | > 15 nM | CO[C@@H]1CCNC[C@@H](C(=O)N[C@H](C#N)Cc2ccc(-c3cc4c(C)nc(C)cn4c3)cc2)OC1 [Compound A32, (2S,7R)—N-[(1S)-1-cyano-2-(4-{1,3-dimethylpyrrolo[1,2-a]pyrazin-7-yl}phenyl)ethyl]-7-methoxy-1,4-oxazocane-2-carboxamide]
22 | > 2.5 nM | < 5 nM | CO[C@@H]1CCNC[C@@H](C(=O)N[C@H](C#N)Cc2ccc(-c3ccc4c(n3)CCCN4)cc2)OC1 [Compound A33, (2S,7R)—N—((S)-1-cyano-2-(4-(5,6,7,8-tetrahydro-1,5-naphthyridin-2-yl)phenyl)ethyl)-7-methoxy-1,4-oxazocane-2-carboxamide]
23 | 1 to 2.5 nM | > 15 nM | CO[C@@H]1CCNC[C@@H](C(=O)N[C@H](C#N)Cc2ccc(-c3cc4c(C)nc(C)cn4c3)s2)OC1 [Compound A34, (2S,7R)—N-[(1S)-1-cyano-2-(5-{1,3-dimethylpyrrolo[1,2-a]pyrazin-7-yl}thiophen-2-yl)ethyl]-7-methoxy-1,4-oxazocane-2-carboxamide]
